Laboratory results from patent US9549977B2 (priority 2011, dated 2017).
Marks after values point to notes of the source that are not given here.

Columns and labels:
[1] = tested on: IL 1β; experiment: IL 1β transcription in peripheral blood leukocytes, real time PCR; assay type: cell-based, rainbow trout (Oncorhynchus mykiss)
Procedure: (§1) FIG. 4. Expression analysis by real time PCR of the in vitro effect of PACAP38 over the transcription of IL 1β in peripheral blood leukocytes (A) and head kidney (B) of naïve rainbow trout. The effects of PACAP administration at a concentration of 10^−10 M, 10^−9 M and 10^−8 M was evaluated at 48 h post-treatment. The experiment was repeated 4 times. The leukocyte cultures were treated in duplicates and the PCRs were performed in triplicate. Data are expressed as mean of relative expression of IL 1β related to the endogenous elongation factor EF1α±standard deviation (SD).
(§2) We used juvenile rainbow trout (O. mykiss) of approximately 50 g, free of the VHSV and IPNV. Fish (n=5) were anesthetized with methanesulfonic acid salt (Sigma, USA) and peripheral blood from the tail vein was taken aseptically of each fish and then the head kidney was collected. […]
(§3) The levels of IL 1β and IL 15 were evaluated 48 hours after treatment. […]
(§4) For cDNA synthesis was used a commercial kit that use the SuperScript III reverse transcriptase (Invitrogen). Finally, for quantitative PCRs (qPCRs) was used a commercial mixture of PCR: Power SYBR Green PCR Master Mix (Applied Biosystems). […] The results were expressed as 2^−ΔCt, where ΔCt is equal to the remainder of the Ct value of the target gene minus the Ct value of the normalized gene EF 1α.

[2] = tested on: IL 1β; experiment: IL 1β transcription in head kidney leukocytes, real time PCR; assay type: cell-based, rainbow trout (Oncorhynchus mykiss); conditions: 10^−10, 10^−9, 10^−8 M tested, 48 h
Procedure: as §1, §2, §3, §4

[3] = tested on: IL 15; experiment: IL 15 expression in peripheral blood leukocytes, real time PCR; assay type: cell-based, rainbow trout (Oncorhynchus mykiss)
Procedure: (§5) FIG. 5. Expression analysis by real time PCR of the in vitro effect of PACAP38 over the transcription of IL 15 in peripheral blood leukocytes (A) and head kidney (B) of neïve rainbow trout. The effects of PACAP administration at a concentration of 10^−10 M, 10^−9 M and 10^−8 M was evaluated at 48 h post-treatment. The experiment was repeated 4 times. The leukocyte cultures were treated in duplicates and the PCRs were performed in triplicates. Data are expressed as the mean of the relative expression of IL 15 related to the endogenous elongation factor EF1α±standard deviation (SD). (*) p<0.05.
as §2, §3, §4

[4] = tested on: IL 15; experiment: IL 15 expression in head kidney leukocytes, real time PCR; assay type: cell-based, rainbow trout (Oncorhynchus mykiss); conditions: 10^−9 M, 48 h, vs negative control
Procedure: as §5, §2, §3, §4

[5] = tested on: Ichthyophthirius multifiliis; experiment: Survival of channel catfish immunized and challenged with live theronts of I. multifiliis; assay type: in vivo, channel catfish (Ictalurus punctatus); conditions: PACAP immersion baths 100 μg/L, 6 baths of 1 hour, versus immunized fish
Procedure: An experiment was conducted to evaluate the effect of PACAP administration, after immunization with ciliated parasite theronts I. multifiliis, on survival of channel catfish (I. punctatus). The vaccination and challenge procedure was performed as proposed by Wang and Dickerson ((2002) Clinical and Diagnostic Laboratory Immunology 9 (1), 176-181). Four experimental groups of 25 fish (12±5 g) each one were established:
Group 1: Fish immunized on days 1 and 35 with PBS.
Group 2: Fish immunized on day 1 with 8000 live theronts I. multifiliis and at day 35 with 10,000 living theronts parasite.
Group 3: Fish immunized on day 1 with 8000 live theronts I. multifiliis and at day 35 with 10,000 living theronts parasite. These fish also received by immersion baths the neuropeptide PACAP at a dose of 100 μg of PACAP/L of water. The treatment was performed for 1 hour, on alternate days, in the two weeks prior to challenge (six immersion baths).
Group 4: Fish immunized on day 1 with 8000 live theronts I. multifiliis and at day 35 with 10,000 living theronts parasite. These fish were also subjected to immersion baths for 1 hour without PACA, by a procedure similar to Group 3.
Prior to the immunizations fish were treated with formalin to remove existing ectoparasites. The fish were maintained at 23±2° C. and continuous water flow. At day 84, the fish were challenged with 15 000 theronts. […]

[6] = tested on: Caligus rogercresseyi; experiment: Controlled challenge test with Caligus rogercresseyi in immunized Salmo salar
Procedure: In this experiment were established six experimental groups of 25 animals (average weight 80 g) each one:
Group 1: Injected IP with PBS
Group 2: Injected IP with PACAP38 at the dose of 1 μg/fish
Group 3: Injected IP with my32 at the dose of 3 μg/g of body weight (gbw)
Group 4: Co-administration by IP injection of my32 at 3 μg/gbw and PACAP at the dose of 1 μg/fish
Group 5: Fish injected IP with my32 at the dose of 3 μg/gbw and fed with 250 μg of PACAP/Kg of feed daily, for one week before and after de immunization with my32.
After 500 arbitrary thermal units, fish were adapted to seawater for two weeks. Subsequently, they were challenged with 2000±200 copepodites to each tank. […] Turnover and filtration was performed manually every 48 hours. At 24 days, fish were anesthetized and killed for parasite counting under a stereomicroscope.

Substance: PACAP38
- transcription of IL 1β (relative expression to EF1α) ([1]; 10^−9 M, 48 h, vs negative control, below the 10^−10 M level): stimulatory effect
- IL 1β levels (relative expression to EF1α) ([1]; 10^−10 M, 48 hours): increased
- IL1β transcription (relative expression to EF1α) [2]: stimulatory effect only at a dose of 10^−9 M
- expression of the IL 15 (relative to EF1α) ([3]; 10^−9 M, 48 h): stimulatory effect
- expression of the IL 15 (relative to EF1α) ([3]; 10^−10 M, 48 h (highest values)): stimulatory effect
- IL 15 expression levels (relative to EF1α) [4]: statistically higher than the negative control group
- increase in survival of immunized fish simultaneously treated with PACAP [5]: 27%
- Inhibition of the infestation (%) ([6]; 24 days post-challenge, (1 − T/C) × 100 versus placebo group): 22%
- Number of parasites/fish ([6]; S. salar, 24 days post-challenge with C. rogercresseyi, PACAP 1 μg/fish IP or 250 μg/Kg feed, my32 3 μg/gbw IP): 29 ± 5^b
